Measurements from publication PMC6271529, “Studies on the Anticonvulsant Activity and Influence on GABA-ergic Neurotransmission of 1,2,4-Triazole-3-thione-Based Compounds” (Molecules, 2014).
Read-outs that look alike come from different tables or passages of the source.

Experiments:
[1] = tested on: maximal electroshock-induced seizures; test: Maximal electroshock-induced seizure (MES) test in mice; assay type: in vivo, mouse; conditions: for p/t, number of animals protected against MES-induced seizures / number tested / responders at 300 mg/kg: 300 mg/kg i.p.; for responders at 300 mg/kg / ED50: Mus musculus, ip; for responders at 300 mg/kg: read-out: percent of animals protected against MES-induced seizures; for PI (TD50/ED50): protective index; for onset of action: significant protection as early as 15 min after parenteral administration, MES
Method in brief: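 Mice given compound i.p. (300 mg/kg screen, then graded doses) 15, 30, 60 or 120 min before ear-clip electroshock (25 mA, 50 Hz, 0.2 s); tonic hind limb extension scored as seizure. ED50 (dose protecting 50% of animals) from Litchfield–Wilcoxon dose-response lines.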

[2] = tested on: benzodiazepine (BDZ)-binding sites; test: Radioligand binding assay, [3H]flunitrazepam, rat cerebral cortex; conditions: compound 1 × 10^−6 M;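 also: low percentages indicate weak binding of the compound to the site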
Description: Binding experiments were conducted in 96-well microplates in a total volume of 200 μL of appropriate buffer. The reaction mixture included 50 μL solution of test compound, 50 μL of radioligand, and […] the tissue suspension. Rat cerebral cortex was used for each receptor. The radioactivity was measured in MicroBeta TriLux 1450-liquid scintillation counter (PerkinElmer, Waltham, MA, USA). Radioligand binding data were analyzed using iterative curve fitting routines (GraphPAD/Prism, Version 3.0, San Diego, CA, USA). Ki values were calculated from the Cheng and Prusoff equation [36].

[3] = tested on: threshold for electroconvulsions; set-up: method as in PMID 22732650; conditions: cited from earlier work
GABAA receptors = test: Radioligand binding assay, [3H]muscimol, rat cerebral cortex; conditions: for Percent of Specific Binding, GABAA: compound 1 × 10^−6 M, [3H]muscimol, rat cerebral cortex; for effect of added compound on affinity of GABA to GABAA receptors: radioligand binding, GABA in combination with compound;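 as to Percent of Specific Binding, GABAA: low percentages indicate weak binding of the compound to the receptor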
Description: Binding experiments were conducted in 96-well microplates in a total volume of 200 μL of appropriate buffer. The reaction mixture included 50 μL solution of test compound, 50 μL of radioligand, and […] the tissue suspension. Rat cerebral cortex was used for each receptor. […] Radioligand binding data were analyzed using iterative curve fitting routines (GraphPAD/Prism, Version 3.0, San Diego, CA, USA). Ki values were calculated from the Cheng and Prusoff equation [36].

[4] = sub-protective doses of the compound co-administered with valproate; cited from earlier work
[5] = tested on: motor performance in mice; test: Chimney test (motor performance impairment, acute adverse effects); conditions: i.p.
Description: Adult male Swiss mice (weighing 22–26 g) that were kept in colony cages with free access to food and tap water, housed under standardized housing conditions, were used. After seven days of adaptation to laboratory conditions, the animals were randomly assigned to experimental groups each comprised of eight mice. Each mouse was used only once. Procedures involving animals and their care were conducted in accordance with current European Community and Polish legislation on animal experimentation. The experimental protocols and procedures described in this manuscript were approved by the First Local Ethics Committee at the Medical University in Lublin and the Second Local Ethics Committee at the University of Life Sciences in Lublin and complied with the European Communities Council Directive of 24 November 1986 (86/609/EEC).
In this test, the animals had to climb backwards up a plastic tube (3 cm inner diameter, 30 cm length), and motor performance impairment was indicated by the inability of the mice to climb backward up the transparent tube within 60 s. […] To evaluate each TD50 value, at least four groups of animals (each group consisted of eight mice) injected with various doses of the appropriate compound were challenged with the chimney test. A dose-response relationship line was calculated on the basis of the percentage of mice showing motor deficits by means of the log-probit method according to Litchfield and Wilcoxon.

[6] = pretreatment time 120 min, mice
[7] = 0.25 h, pretreatment time 15 min, mice
[8] = 0.5 h, pretreatment time 30 min, mice
[9] = 1 h, pretreatment time 60 min, mice
[10] = 2 h, pretreatment time 120 min, mice
[11] = pretreatment time 15 min, mice, read-out: ED50 ± S.E. (MES test)
[12] = pretreatment time 30 min, mice, read-out: ED50 ± S.E. (MES test)
[13] = pretreatment time 60 min, mice, read-out: ED50 ± S.E. (MES test)
[14] = pretreatment time 120 min, mice, read-out: ED50 ± S.E. (MES test)
[15] = chimney TD50 / MES ED50, pretreatment time 15 min
[16] = chimney TD50 / MES ED50, pretreatment time 30 min
[17] = chimney TD50 / MES ED50, pretreatment time 60 min
[18] = chimney TD50 / MES ED50, pretreatment time 120 min

Compound	p/t, number of animals protected against MES-induced seizures / number tested ([1]; pretreatment time 15 min, mice)	p/t, number of animals protected against MES-induced seizures / number tested ([1]; pretreatment time 30 min, mice)	p/t, number of animals protected against MES-induced seizures / number tested ([1]; pretreatment time 60 min, mice)	p/t, number of animals protected against MES-induced seizures / number tested [1, 6]	responders at 300 mg/kg [1, 7]	responders at 300 mg/kg [1, 8]	responders at 300 mg/kg [1, 9]	responders at 300 mg/kg [1, 10]	ED50 [1, 11]	ED50 [1, 12]	ED50 [1, 13]	ED50 [1, 14]	PI (TD50/ED50) [1, 15]	PI (TD50/ED50) [1, 16]	PI (TD50/ED50) [1, 17]	PI (TD50/ED50) [1, 18]	onset of action ([1]; mice)	Percent of Specific Binding, BDZ [2]	Percent of Specific Binding, GABAA (GABAA receptors)	melting point	also measured
S=c1[nH]nc(-c2cccc(Cl)c2)n1-c1ccc(Br)cc1 [Compound 6a, 4-(4-Bromophenyl)-5-(3-chlorophenyl)-2,4-dihydro-3H-1,2,4-triazole-3-thione]	4/8	6/8	6/8	3/8	50%	75%	75%	37.5%	298 ± 21.1 mg/kg	218 ± 21.7 mg/kg	209 ± 27.3 mg/kg	336 ± 14 mg/kg	1.2	1.8	1.9	1.3	quick onset of action	20%	17%		anticonvulsant activity (in words) ([1]; MES test, mice): slightly weaker than that of valproate; elevation of the threshold for electroconvulsions [3]: 70%; effect of added compound on affinity of GABA to GABAA receptors (GABAA receptors): did not lead to an increase
Cc1ccc(-n2c(-c3cccc(Cl)c3)n[nH]c2=S)cc1 [Compound 10a, 5-(3-Chlorophenyl)-4-(4-methylphenyl)-2,4-dihydro-3H-1,2,4-triazole-3-thione]	8/8	8/8	8/8	6/8									5.9	4.5	1.8	1.4	quick onset of action	9%	2%		ED50 ([1]; read-out: ED50 ± S.E. (MES test), i.p., pretreatment time 15 min, mice): 57 ± 9.4 mg/kg; ED50 ([1]; read-out: ED50 ± S.E. (MES test), i.p., pretreatment time 30 min, mice): 74.5 ± 8.1 mg/kg; ED50 ([1]; read-out: ED50 ± S.E. (MES test), i.p., pretreatment time 60 min, mice): 187 ± 18.8 mg/kg; ED50 ([1]; read-out: ED50 ± S.E. (MES test), i.p., pretreatment time 120 min, mice): 281 ± 13.6 mg/kg; effect of added compound on affinity of GABA to GABAA receptors (GABAA receptors): did not lead to an increase; elevation of total brain concentration of valproate [4]: 52%
Fc1ccccc1-n1c(-c2ccc(Cl)cc2)n[nH]c1=S [Compound 12a, 5-(4-Chlorophenyl)-4-(2-fluorophenyl)-2,4-dihydro-3H-1,2,4-triazole-3-thione]	6/8	6/8	7/8	7/8	75%	75%	87.5%	87.5%	208 ± 25.3 mg/kg	186 ± 24.6 mg/kg	218 ± 21.7 mg/kg	209 ± 27.3 mg/kg	2.6	2.7	1.9	2.3	quick onset of action	18%	13%	240 to 242 °C	ED50 ([1]; pretreatment times 15, 30, 60, 120 min, read-out: ED50 (MES), range over pretreatment times): 186 to 218 mg/kg
S=c1[nH]nc(-c2ccc(Cl)cc2)n1-c1ccccc1Br [Compound 15a, 4-(2-Bromophenyl)-5-(4-chlorophenyl)-2,4-dihydro-3H-1,2,4-triazole-3-thione]	6/8	8/8	8/8	7/8	75%	100%	100%	87.5%	183 ± 25.1 mg/kg	105 ± 16.5 mg/kg	137 ± 19.9 mg/kg	176 ± 25 mg/kg	1.5	2.4	1.8	1.4	quick onset of action	21%	8%	250 to 252 °C	
CSc1ccc(-n2c(-c3ccc(Cl)cc3)n[nH]c2=S)cc1 [Compound 17a, 5-(4-Chlorophenyl)-4-[4-(methylsulfanyl)phenyl]-2,4-dihydro-3H-1,2,4-triazole-3-thione]	0/8	0/8	1/8	0/8	0%	0%	12.5%	0%										6%	21%	214 to 216 °C	
CCCC(CCC)C(=O)O [Valproate, Magnesium valproate]										217 ± 9.4 mg/kg	218 ± 18.9 mg/kg	247 ± 21.6 mg/kg									TD50 ± S.E. (chimney test) ([5]; pretreatment time 15 min): 363.3 ± 14.2 mg/kg; TD50 ± S.E. (chimney test) ([5]; pretreatment time 30 min): 372.9 ± 16.9 mg/kg; TD50 ± S.E. (chimney test) ([5]; pretreatment time 60 min): 417.3 ± 9.5 mg/kg; TD50 ± S.E. (chimney test) ([5]; pretreatment time 120 min): 512.3 ± 20.2 mg/kg
